Results taken from article PMC9549500, “Inhibition of TRPC4 channel activity in colonic myocytes by tricyclic antidepressants disrupts colonic motility causing constipation” (Journal of Cellular and Molecular Medicine, 2022).

Target: T1, TRPC4 (Mus musculus, UniProt Q9QUQ5)
T1 construct: native channel in murine sigmoid colonic myocytes
T1 sequence (Q9QUQ5 1-974): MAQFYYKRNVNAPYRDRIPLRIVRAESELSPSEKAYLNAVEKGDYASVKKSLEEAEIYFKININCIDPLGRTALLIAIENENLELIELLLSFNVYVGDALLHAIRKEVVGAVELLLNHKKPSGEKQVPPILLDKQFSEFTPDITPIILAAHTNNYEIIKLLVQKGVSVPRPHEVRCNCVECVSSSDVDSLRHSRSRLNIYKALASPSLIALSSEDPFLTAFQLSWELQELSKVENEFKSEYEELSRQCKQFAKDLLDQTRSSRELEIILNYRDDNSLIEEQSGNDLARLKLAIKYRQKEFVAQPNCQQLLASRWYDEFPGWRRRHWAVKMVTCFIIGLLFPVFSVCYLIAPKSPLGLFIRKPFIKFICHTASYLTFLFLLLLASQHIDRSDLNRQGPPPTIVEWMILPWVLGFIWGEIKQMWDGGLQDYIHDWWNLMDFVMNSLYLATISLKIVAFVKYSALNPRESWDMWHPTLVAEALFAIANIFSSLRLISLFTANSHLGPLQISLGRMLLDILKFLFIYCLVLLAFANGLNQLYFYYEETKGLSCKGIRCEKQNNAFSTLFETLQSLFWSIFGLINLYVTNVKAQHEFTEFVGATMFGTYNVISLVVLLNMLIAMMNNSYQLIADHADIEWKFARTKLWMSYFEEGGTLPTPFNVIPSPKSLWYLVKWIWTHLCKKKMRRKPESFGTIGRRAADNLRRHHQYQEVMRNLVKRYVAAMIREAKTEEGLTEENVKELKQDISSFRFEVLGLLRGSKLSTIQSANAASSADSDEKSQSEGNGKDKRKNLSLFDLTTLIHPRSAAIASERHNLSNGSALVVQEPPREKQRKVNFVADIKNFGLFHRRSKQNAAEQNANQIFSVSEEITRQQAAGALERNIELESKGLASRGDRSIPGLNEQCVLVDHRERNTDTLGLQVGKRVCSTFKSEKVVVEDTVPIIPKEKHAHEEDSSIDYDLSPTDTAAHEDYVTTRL
Assay: whole-cell patch clamp of CCh-evoked mIcat in murine colonic myocytes, […] Pico145; current absent in TRPC4-deficient mice
Format: cell-based

Cn1c(=O)n(CCCO)c(=O)c2c1nc(Oc1cccc(OC(F)(F)F)c1)n2Cc1ccc(Cl)cc1 [Pico145]
whole-cell patch clamp of CCh-evoked mIcat in murine colonic myocytes, 100 nM Pi: The selective and potent antagonist of TRPC4, Pico145, completely blocked the CCh‐evoked current.
